Measured values published in EP0580185A1, “Medicaments” (THE WELLCOME FOUNDATION LIMITED, priority 1988, dated 1990).
Where two headings read alike, the source gives them in different places. Values belong to the compound of their own block, whether it stands above or below them.

Key:
Plasmodium Falciparum = assay: Activity against Plasmodium falciparum in vitro, G-3H-hypoxanthine incorporation; type: cell-based; details: cultures incubated for 48 hours, RPMI 1640 medium + 10% human plasma, read-out: In vitro IC₅₀
Experimental: The test method was modification of that described by Desjardins et al., Antimicrob. Agents and Chemotherapy 1979, 16, 710-718. Compounds were dissolved in ethanol at a concentration of 4.8x10⁻³M and dilutions down to 1x10⁻⁴M were made. The drug solutions were serially diluted using RPMI 1640 medium + 10% human plasma in microtitration plates. Parasitised and fresh red blood cells were added, together with G-³H-hypoxanthine, in RPMI 1640 medium + 10% human plasma and the cultures incubated for 48 hours. Cultures were then harvested, the particulate contents collected on a glass fibre filter paper and washed copiously with water. The filter papers were dried and the radioactivity measured using a scintillation counter. Infected untreated and uninfected untreated cultures were included as controls.

Plasmodium yoelii = assay: Activity against Plasmodium yoelii in vivo, tail-blood smears at 96 hours; parameters: species or system mice; details: for ED50: Plasmodium yoelii, in Mus musculus, 96 h
Experimental: The naphthoquinone was suspended in 0.25% (w/v) celacol in water by milling for 16-24 hours at 26°C. The suspensions were subsequently serially diluted with 0.25% (w/v) celacol in water. At time 0, 0.1 ml of a suspension of 5x10⁶ P.yoelii-parasitised red blood cells/ml of phosphate saline were injected intravenously into 15-20 g mice through a tail vein. Groups of 5 mice per treatment were dosed orally at times 6, 22, 30, 46, 54, 70 and 78 hours with 0.2 ml of the drug suspension. The compound of Example 4 was also administered intravenously. Tail-blood smears were taken at 96 hours, stained with Giemsa and the percentage of red blood cells infected determined and compared to untreated, infected controls. Percent inhibition was correllated with dose to provide ED values.

[1] = tested on: Pneumocystis carinii pneumonia; details: cited from earlier work
[2] = Water-solubility compared with the parent compound; type: physicochemical; details: as compared with the parent compound of formula (V)
Pneumocystis carinii = assay: Prophylaxis of Pneumocystis carinii pneumonitis in dexamethasone-treated rats, lung histopathology score; type: in vivo; details: for No.with P. carinii Pneumonitis Total: per rats evaluated
Experimental: A: 2-[trans-4-(4-chlorophenyl)cyclohexyl]-3-hydroxy-1,4-naphthoquinone B: 2-[cis-4-(4-chlorophenyl)cyclohexyl]-3-hydroxy-1,4-naphthoquinone C: 2-[4-(4-chlorophenyl)cyclohexyl]-3-chloro-1,4-naphthoquinone D: 2-(4-t-butylcyclohexyl)-3-hydroxy-1,4-naphthoquinone E: 2-(4-t-butylcyclohexylmethyl)-3-hydroxy-1,4-naphthoquinone a) Prophylaxis Groups of 10 rats were treated with dexamethasone to allow latent Pneumocystis carinii infection to develop. Tetracycline was also administered to protect against bacterial infections. Test compound A was administered, by gavage, from day 4 of the dexamethasone treatment, at a dose of 100 mg/kg/day. Two control groups of rats were treated with dexamethasone and tetracycline only. A further group of rats was given cotrimoxazole (trimethoprim + sulphamethoxazole, 50 + 250 mg/kg/day, orally) in place of the test compound. At the end of the test period the animals were sacrificed and autopsies carried out. The lungs were removed and the right lung bisected. An imprint was made onto microscope slides and stained with toluidine blue. One half of the lung was placed in formalin, processed in paraffin blocks, sectioned and stained by the Gomori methanamine silver nitrate method. After autopsy the extent of P.carinii pneumonitis was scored under coded study as none if no organism seen; 1+ if P.carinii cysts seen sparsely distributed with less than one per 25 high power field (h.p.f.); 2+ if focal areas of P.carinii pneumonitis surrounded by 10 to 25 h.p.f of normal lung and 3+ if lung diffusely and extensively involved with organisms in almost all h.p.f.s.
b) Prophylaxis A further series of tests was carried out using the same general method as described above. Test compound A was administered at various dose levels, by gavage and in the diet.

[3] = po, dosed orally at 6, 22, 30, 46, 54, 70 and 78 hours, read-out: In vivo ED₅₀ oral
[4] = 100 mg per kg/day, gavage, group of 10 rats
[5] = 100 mg per kg/day, gavage, group of 15 rats
[6] = 100 mg/kg/day by gavage from day 4 of dexamethasone treatment

SMILES: N=C(N)c1ccc(OCCCCCOc2ccc(C(=N)N)cc2)cc1 [pentamidine]
- incidence of adverse reactions ([1]; AIDS patients): around 50%
- effective in AIDS patients ([1]; treatment of Pneumocystis carinii pneumonia): 50-70%

SMILES: CCOC(=O)OC1=C([C@H]2CC[C@H](c3ccc(Cl)cc3)CC2)C(=O)c2ccccc2C1=O [Example 6, 2-Ethoxycarbonyloxy-3-[trans-4-(4-chlorophenyl)cyclohexyl]-1,4 naphthoquinone]
- IC50 (Plasmodium Falciparum): 80 nM
- ED50 (Plasmodium yoelii; [3]): 0.09 mg/kg

SMILES: CC(=O)OC1=C([C@H]2CC[C@H](c3ccc(Cl)cc3)CC2)C(=O)c2ccccc2C1=O [Example 5, 2-Acetoxy-3-[trans-4-(4-chlorophenyl)cyclohexyl]-1,4-naphthoquinone]
- IC50 (Plasmodium Falciparum): 68 nM
- water-solubility [2]: improved
- ED50 (Plasmodium yoelii; [3]): 0.12 mg/kg

SMILES: O=C1C(O)=C([C@H]2CC[C@H](c3ccc(Cl)cc3)CC2)C(=O)c2ccccc21 [Example 1C, 2-[trans-4-(4-Chlorophenyl)cyclohexyl]-3-hydroxy-1,4-naphthoquinone]
- IC50 (Plasmodium Falciparum): 2 nM
- No.with P. carinii Pneumonitis 1+ (Pneumocystis carinii; 10 mg per kg/day, gavage): 1
- No.with P. carinii Pneumonitis 2+ (Pneumocystis carinii; 10 mg per kg/day, gavage): 0
- No.with P. carinii Pneumonitis 3+ (Pneumocystis carinii; 10 mg per kg/day, gavage): 8
- No.with P. carinii Pneumonitis None (Pneumocystis carinii; 10 mg per kg/day, gavage): 1
- No.with P. carinii Pneumonitis Total (Pneumocystis carinii; 10 mg per kg/day, gavage): 9/10
- No.with P. carinii Pneumonitis 1+ (Pneumocystis carinii; 25 mg per kg/day, gavage): 2
- No.with P. carinii Pneumonitis 2+ (Pneumocystis carinii; 25 mg per kg/day, gavage): 1
- No.with P. carinii Pneumonitis 3+ (Pneumocystis carinii; 25 mg per kg/day, gavage): 4
- No.with P. carinii Pneumonitis None (Pneumocystis carinii; 25 mg per kg/day, gavage): 1
- No.with P. carinii Pneumonitis Total (Pneumocystis carinii; 25 mg per kg/day, gavage): 7/8
- No.with P. carinii Pneumonitis 1+ (Pneumocystis carinii; 50 mg per kg/day, gavage): 0
- No.with P. carinii Pneumonitis 2+ (Pneumocystis carinii; 50 mg per kg/day, gavage): 1
- No.with P. carinii Pneumonitis 3+ (Pneumocystis carinii; 50 mg per kg/day, gavage): 1
- No.with P. carinii Pneumonitis None (Pneumocystis carinii; 50 mg per kg/day, gavage): 7
- No.with P. carinii Pneumonitis Total (Pneumocystis carinii; 50 mg per kg/day, gavage): 2/9
- No.with P. carinii Pneumonitis 1+ (Pneumocystis carinii; [4]): 1
- No.with P. carinii Pneumonitis 2+ (Pneumocystis carinii; [4]): 0
- No.with P. carinii Pneumonitis 3+ (Pneumocystis carinii; [4]): 0
- No.with P. carinii Pneumonitis None (Pneumocystis carinii; [4]): 8
- No.with P. carinii Pneumonitis Total (Pneumocystis carinii; [4]): 1/9
- No.with P. carinii Pneumonitis 1+ (Pneumocystis carinii; [5]): 0
- No.with P. carinii Pneumonitis 2+ (Pneumocystis carinii; [5]): 0
- No.with P. carinii Pneumonitis 3+ (Pneumocystis carinii; [5]): 0
- No.with P. carinii Pneumonitis None (Pneumocystis carinii; [5]): 9
- No.with P. carinii Pneumonitis Total (Pneumocystis carinii; [5]): 0/9
- No.with P. carinii Pneumonitis 1+ (Pneumocystis carinii; 100 mg per kg/day, rations): 0
- No.with P. carinii Pneumonitis 2+ (Pneumocystis carinii; 100 mg per kg/day, rations): 0
- No.with P. carinii Pneumonitis 3+ (Pneumocystis carinii; 100 mg per kg/day, rations): 0
- No.with P. carinii Pneumonitis None (Pneumocystis carinii; 100 mg per kg/day, rations): 10
- No.with P. carinii Pneumonitis Total (Pneumocystis carinii; 100 mg per kg/day, rations): 0/10
- No of rats with P.carinii Pneumonitis 1+ (Pneumocystis carinii; [6]): 0
- No of rats with P.carinii Pneumonitis 2+ (Pneumocystis carinii; [6]): 0
- No of rats with P.carinii Pneumonitis 3+ (Pneumocystis carinii; [6]): 0
- No of rats with P.carinii Pneumonitis None (Pneumocystis carinii; [6]): 8
- No of rats with PCP/No of rats tested (Pneumocystis carinii; [6]): 0/8
- No.with P. carinii Pneumonitis 1+ (Pneumocystis carinii; 200 mg per kg/day, rations): 0
- No.with P. carinii Pneumonitis 2+ (Pneumocystis carinii; 200 mg per kg/day, rations): 0
- No.with P. carinii Pneumonitis 3+ (Pneumocystis carinii; 200 mg per kg/day, rations): 0
- No.with P. carinii Pneumonitis None (Pneumocystis carinii; 200 mg per kg/day, rations, Gomori-Grocott stain): 9
- No.with P. carinii Pneumonitis Total (Pneumocystis carinii; 200 mg per kg/day, rations): 0/9
- ED50 (Plasmodium yoelii; [3]): 0.03 mg/kg

Further lines, with some results ahead:

- IC50 (Plasmodium Falciparum): 220 nM
SMILES: CN(C)c1ccc(C(=O)OC2=C([C@H]3CC[C@H](c4ccc(Cl)cc4)CC3)C(=O)c3ccccc3C2=O)cc1 [Example 7, 2-[trans-4-(4-Chlorophenyl)cyclohexyl]-3-(4-dimethylaminobenzoyloxy)-1,4-naphthoquinone]
- ED50 (Plasmodium yoelii; [3]): 0.12 mg/kg

- IC50 (Plasmodium Falciparum): 360 nM
SMILES: COC1=C([C@H]2CC[C@H](c3ccc(Cl)cc3)CC2)C(=O)c2ccccc2C1=O [Example 2, 2-Methoxy-3-[trans-4-(4-chlorophenyl)cyclohexyl]-1,4-naphthoquinone]
- ED50 (Plasmodium yoelii; [3]): 5.8 mg/kg

- IC50 (Plasmodium Falciparum): 1140 nM
SMILES: NC1=C([C@H]2CC[C@H](c3ccc(Cl)cc3)CC2)C(=O)c2ccccc2C1=O [Example 3, 2-Amino-3-[trans-4-(4-chlorophenyl)cyclohexyl]-1,4-naphthoquinone]
- ED50 (Plasmodium yoelii; [3]): 1.26 mg/kg

- IC50 (Plasmodium Falciparum): 59 nM
SMILES: CN(C)CCCOC1=C([C@H]2CC[C@H](c3ccc(Cl)cc3)CC2)C(=O)c2ccccc2C1=O.Cl [Example 4, 2-[trans-4-(4-Chlorophenyl)cyclohexyl]-3-(3-dimethylaminopropoxy)-1,4-naphthoquinone hydrochloride]
- ED50 (Plasmodium yoelii; iv, administered intravenously, read-out: In vivo ED₅₀ i.v.): 2.08 mg/kg
- ED50 (Plasmodium yoelii; [3]): 0.61 mg/kg
- In vivo ED₅₀ oral (Plasmodium yoelii; dosed orally at 6, 22, 30, 46, 54, 70 and 78 hours, hydrochloride, 5760 min): 0.68 mg/kg
